Experimental data taken from patent US20240199546A1, “INHIBITORS OF SOLUTE CARRIER FAMILY 6A MEMBER 19 (SLC6A19) AND METHODS OF USE THEREOF” (Maze Therapeutics, Inc., priority 2022, published 2024).

What was measured:
human SLC6A19 and TMEM27 [1] = molecular target: T1, human SLC6A19 and TMEM27 (Homo sapiens, UniProt Q695T7); assay: Radiolabelled (3H) leucine uptake in CHO cells with doxycycline-inducible expression of human SLC6A19 and TMEM27 (Example B-1); type: cell-based; settings: CHO cells with doxycycline-inducible expression of human SLC6A19 and TMEM27, read-out: SLC6A19_Radioligand Uptake Assay IC50
T1 construct: expressed in transfected cells
T1 sequence (Q695T7 1-634): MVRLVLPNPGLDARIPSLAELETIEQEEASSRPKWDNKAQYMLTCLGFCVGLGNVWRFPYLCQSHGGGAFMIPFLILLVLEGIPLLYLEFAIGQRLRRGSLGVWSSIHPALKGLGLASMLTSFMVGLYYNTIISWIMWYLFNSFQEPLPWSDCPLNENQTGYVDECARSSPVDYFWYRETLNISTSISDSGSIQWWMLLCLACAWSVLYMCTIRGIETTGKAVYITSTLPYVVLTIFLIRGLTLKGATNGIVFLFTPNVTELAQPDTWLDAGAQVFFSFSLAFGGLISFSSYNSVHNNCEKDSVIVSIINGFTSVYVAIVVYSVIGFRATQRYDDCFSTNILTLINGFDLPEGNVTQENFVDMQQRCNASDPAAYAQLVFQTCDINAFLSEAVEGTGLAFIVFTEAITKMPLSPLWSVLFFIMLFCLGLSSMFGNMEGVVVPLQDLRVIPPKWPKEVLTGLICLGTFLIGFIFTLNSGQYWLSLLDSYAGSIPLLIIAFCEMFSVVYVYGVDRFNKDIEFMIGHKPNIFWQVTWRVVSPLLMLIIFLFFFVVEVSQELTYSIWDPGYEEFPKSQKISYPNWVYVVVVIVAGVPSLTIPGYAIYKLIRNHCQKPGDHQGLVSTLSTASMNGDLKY
T1 sequence (Q9HBJ8 15-222 partner): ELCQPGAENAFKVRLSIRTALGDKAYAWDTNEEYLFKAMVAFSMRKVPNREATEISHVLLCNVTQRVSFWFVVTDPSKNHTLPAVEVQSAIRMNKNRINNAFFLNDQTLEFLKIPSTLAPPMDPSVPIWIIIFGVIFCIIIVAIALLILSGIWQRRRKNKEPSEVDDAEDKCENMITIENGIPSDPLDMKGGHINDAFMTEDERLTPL
How it was run: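 CHO cells were induced with doxycycline for 18 h at 37 °C, washed in HBSS, then exposed to compounds for 1 h: 8-point, 3-fold dilutions in duplicate, 0.5% DMSO final. Uptake measured by scintillation counting after 2 h shaking. Activity normalized with positive control as 0% and DMSO as 100%.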

human SLC6A19 and TMEM27 [2] = molecular target: T1, human SLC6A19 and TMEM27; assay: 13C6,15N-isoleucine uptake in CHO cells with doxycycline-inducible expression of human SLC6A19 and TMEM27, RapidFire mass spectrometry (Example B-2); type: cell-based; settings: read-out: SLC6A19_RapidFire Uptake Assay IC50
How it was run: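 Read-out is RapidFire mass-spec peak area of 13C6,15N-isoleucine taken up over 20 min at 37 °C, after 20 min compound pre-exposure in pH 7.2 HEPES-buffered saline. Cells: doxycycline-induced CHO co-expressing human SLC6A19 and TMEM27; compounds as duplicate 10-point 2-fold dilutions, positive control setting 0% activity.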

Compound | IC50 (human SLC6A19 and TMEM27 [1]) [nM] | IC50 (human SLC6A19 and TMEM27 [2]) [nM]
O=C(NCc1cc2cc(F)c(OCc3cccc(F)n3)cc2[nH]1)C1CC1 [Compound 497, N-((5-fluoro-6-((6-fluoropyridin-2-yl)methoxy)-1H-indol-2-yl)methyl)cyclopropanecarboxamide] | 197 | 184
CC1(C(=O)NCc2cc3cc(Cl)c(OCc4ccns4)cc3[nH]2)CC1 [Compound 322, N-((5-chloro-6-(isothiazol-5-ylmethoxy)-1H-indol-2-yl)methyl)-1-methylcyclopropane-1-carboxamide] | 275 | 138
Cn1ncc(COc2cc3[nH]c(CNC(=O)N4CCC4)cc3cc2Cl)n1 [Compound 405, N-((5-chloro-6-((2-methyl-2H-1,2,3-triazol-4-yl)methoxy)-1H-indol-2-yl)methyl)azetidine-1-carboxamide] | 305 | 367
CC1(C(=O)NCc2cc3cc(Cl)c(NCc4cscn4)cc3[nH]2)CC1 [Compound 452, N-((5-chloro-6-((thiazol-4-ylmethyl)amino)-1H-indol-2-yl)methyl)-1-methylcyclopropane-1-carboxamide] | 145 | 63.6
CC1(C(=O)NCc2cc3cc(F)c(NCc4cscn4)cc3[nH]2)CC1 [Compound 523, N-((5-fluoro-6-((thiazol-4-ylmethyl)amino)-1H-indol-2-yl)methyl)-1-methylcyclopropane-1-carboxamide] | 208 | 239
CC1(C(=O)NCc2cc3cc(Cl)c(OCc4ncc(Cl)s4)cc3[nH]2)CC1 [Compound 323, N-((5-chloro-6-((5-chlorothiazol-2-yl)methoxy)-1H-indol-2-yl)methyl)-1-methylcyclopropane-1-carboxamide] | 1810 | 531
CC1(C(=O)NCc2cc3cc(Cl)c(OCc4cscn4)c(F)c3[nH]2)CC1 [Compound 18, N-((5-chloro-7-fluoro-6-(thiazol-4-ylmethoxy)-1H-indol-2-yl)methyl)-1-methylcyclopropane-1-carboxamide] | 78 | 91
Cc1cnc(COc2cc3[nH]c(CNC(=O)C4(C)CC4)cc3cc2Cl)s1 [Compound 63, N-((5-chloro-6-((5-methylthiazol-2-yl)methoxy)-1H-indol-2-yl)methyl)-1-methylcyclopropane-1-carboxamide] | 299 | 56
Cc1cc(COc2cc3[nH]c(CNC(=O)C4(C)CC4)cc3cc2F)on1 [Compound 12, N-((5-fluoro-6-((3-methylisoxazol-5-yl)methoxy)-1H-indol-2-yl)methyl)-1-methylcyclopropane-1-carboxamide] | 79 | 144
CC1(C(=O)NCc2cc3cc(Cl)c(OCc4csc(Cl)c4)cc3[nH]2)CC1 [Compound 324, N-((5-chloro-6-((5-chlorothiophen-3-yl)methoxy)-1H-indol-2-yl)methyl)-1-methylcyclopropane-1-carboxamide] | 1120 | 476
CC1CN(C(=O)NCc2cc3cc(F)c(OCc4ccon4)cc3[nH]2)C1 [Compound 389, N-((5-fluoro-6-(isoxazol-3-ylmethoxy)-1H-indol-2-yl)methyl)-3-methylazetidine-1-carboxamide] | 353 | 485
CC(=O)NCc1cc2cc(F)c(OCc3coc(C)n3)cc2[nH]1 [Compound 236, N-((5-fluoro-6-((2-methyloxazol-4-yl)methoxy)-1H-indol-2-yl)methyl)acetamide] | 2990 | > 19300

Next, values leading:

IC50 (human SLC6A19 and TMEM27 [1]) [nM] | IC50 (human SLC6A19 and TMEM27 [2]) [nM] | Compound
78 | 24 | CC1(C(=O)NCc2cc3cc(Cl)c(OCc4ccoc4)cc3[nH]2)CC1 [Compound 64, N-((5-chloro-6-(furan-3-ylmethoxy)-1H-indol-2-yl)methyl)-1-methylcyclopropane-1-carboxamide]
70 | 61 | CC1(C(=O)NCc2cc3cc(Cl)c(OCc4ccon4)cc3[nH]2)CC1 [Compound 46, N-((5-chloro-6-(isoxazol-3-ylmethoxy)-1H-indol-2-yl)methyl)-1-methylcyclopropane-1-carboxamide]
2700 | 989 | CC1(C(=O)NCc2cc3cc(Cl)c(OCc4ccc5ccoc5c4)cc3[nH]2)CC1 [Compound 461, N-((6-(benzofuran-6-ylmethoxy)-5-chloro-1H-indol-2-yl)methyl)-1-methylcyclopropane-1-carboxamide]
1670 | 545 | O=C(NCc1cc2cc(C(F)(F)F)c(OCc3cscn3)cc2[nH]1)N1CCCC1 [Compound 479, N-((6-(thiazol-4-ylmethoxy)-5-(trifluoromethyl)-1H-indol-2-yl)methyl)pyrrolidine-1-carboxamide]
359 | 131 | O=C(NCc1cc2cc(OC(F)(F)F)c(OCc3cscn3)cc2[nH]1)N1CCC1 [Compound 421, N-((6-(thiazol-4-ylmethoxy)-5-(trifluoromethoxy)-1H-indol-2-yl)methyl)azetidine-1-carboxamide]
169 | 117 | CC1(C(=O)NCc2cc3cc(Cl)c(OCCc4cscn4)cc3[nH]2)CC1 [Compound 67, N-((5-chloro-6-(2-(thiazol-4-yl)ethoxy)-1H-indol-2-yl)methyl)-1-methylcyclopropane-1-carboxamide]
340 | 576 | O=C(NCc1cc2ccc(OCc3ccon3)cc2[nH]1)N1CCCCC1 [Compound 123, N-((6-(isoxazol-3-ylmethoxy)-1H-indol-2-yl)methyl)piperidine-1-carboxamide]
307 | 275 | CC1(C(=O)NCc2cc3cc(Cl)c(OCc4cncs4)cc3[nH]2)CC1 [Compound 177, N-((5-chloro-6-(thiazol-5-ylmethoxy)-1H-indol-2-yl)methyl)-1-methylcyclopropane-1-carboxamide]
2130 | 1780 | CC1(C(=O)NCc2cc3cc(F)c(OCc4ccon4)cc3[nH]2)CCC1 [Compound 502, N-((5-fluoro-6-(isoxazol-3-ylmethoxy)-1H-indol-2-yl)methyl)-1-methylcyclobutane-1-carboxamide]
332 | 330 | Cc1cc2cc(CNC(=O)N3CCCC3)[nH]c2cc1OCc1ccon1 [Compound 533, N-((6-(isoxazol-3-ylmethoxy)-5-methyl-1H-indol-2-yl)methyl)pyrrolidine-1-carboxamide]
3160 | 2480 | Cc1cc(COc2c(Cl)cc3cc(CNC(=O)C4(C)CC4)[nH]c3c2Cl)no1 [Compound 343, N-((5,7-dichloro-6-((5-methylisoxazol-3-yl)methoxy)-1H-indol-2-yl)methyl)-1-methylcyclopropane-1-carboxamide]
382 | 240 | CN(C(=O)NCc1cc2cc(Cl)c(OCc3ccon3)cc2[nH]1)C1CC1 [Compound 379, 3-((5-chloro-6-(isoxazol-3-ylmethoxy)-1H-indol-2-yl)methyl)-1-cyclopropyl-1-methylurea]
84 | 92 | CC1(C(=O)NCc2cc3c(F)cc(OCc4ccon4)cc3[nH]2)CC1 [Compound 27, N-((4-fluoro-6-(isoxazol-3-ylmethoxy)-1H-indol-2-yl)methyl)-1-methylcyclopropane-1-carboxamide]
363 | 314 | Cc1nc(COc2cc3[nH]c(CNC(=O)C4(C)CC4)cc3cc2F)co1 [Compound 547, N-((5-fluoro-6-((2-methyloxazol-4-yl)methoxy)-1H-indol-2-yl)methyl)-1-methylcyclopropane-1-carboxamide]
384 | 253 | CC(C)(C)C(=O)NCc1cc2cc(Cl)c(OCc3cscn3)cc2[nH]1 [Compound 432, N-((5-chloro-6-(thiazol-4-ylmethoxy)-1H-indol-2-yl)methyl)pivalamide]
82 | 45 | Cc1cc(COc2cc3[nH]c(CNC(=O)C4CC4)cc3cc2Cl)no1 [Compound 133, N-((5-chloro-6-((5-methylisoxazol-3-yl)methoxy)-1H-indol-2-yl)methyl)cyclopropanecarboxamide]
149 | 166 | CC1(C(=O)NCc2cc3cc(Cl)c(OCc4ncccc4F)cc3[nH]2)CC1 [Compound 26, N-((5-chloro-6-((3-fluoropyridin-2-yl)methoxy)-1H-indol-2-yl)methyl)-1-methylcyclopropane-1-carboxamide]
